Reference: patent US20220220095A1, “N-((HETEROARYL)METHYL)-1-TOSYL-1H-PYRAZOLE-3-CARBOXAMIDE DERIVATIVES AS Kv3 POTASSIUM CHANNEL ACTIVATORS FOR TREATING NEUROLOGICAL AND [sequence] DISORDERS” (H. Lundbeck A/S, priority 2019, published 2022)

Molecular target: T1, hKv3.1b (Homo sapiens, UniProt P48547)
T1 construct: expressed in transfected cells
T1 sequence (P48547 1-585 isoform P48547-2): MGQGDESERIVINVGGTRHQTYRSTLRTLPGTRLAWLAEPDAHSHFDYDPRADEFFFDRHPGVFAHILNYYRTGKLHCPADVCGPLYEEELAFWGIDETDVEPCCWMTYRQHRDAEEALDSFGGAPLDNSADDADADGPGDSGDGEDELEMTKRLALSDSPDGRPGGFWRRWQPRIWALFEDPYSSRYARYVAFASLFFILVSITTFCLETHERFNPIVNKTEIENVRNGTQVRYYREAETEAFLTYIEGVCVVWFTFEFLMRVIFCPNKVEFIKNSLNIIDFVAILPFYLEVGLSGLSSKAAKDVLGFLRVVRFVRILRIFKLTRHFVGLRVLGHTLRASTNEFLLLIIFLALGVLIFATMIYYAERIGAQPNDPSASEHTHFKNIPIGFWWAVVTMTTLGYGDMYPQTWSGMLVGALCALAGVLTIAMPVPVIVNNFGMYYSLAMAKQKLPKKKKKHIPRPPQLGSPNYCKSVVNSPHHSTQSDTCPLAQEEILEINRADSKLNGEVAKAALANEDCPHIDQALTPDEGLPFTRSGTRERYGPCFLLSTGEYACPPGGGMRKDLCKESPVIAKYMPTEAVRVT
Assay: Automated whole-cell patch-clamp (QPatch-16x) on HEK-293 cells stably expressing hKv3.1b: shift of voltage threshold for channel activation
Type: cell-based
Conditions: HEK-293 hKv3.1b; for ECdelta5mV: concentration needed to shift the threshold 5 mV, read out from fitted concentration response curve; for Max Delta threshold: maximum absolute shift of activation threshold to more hyperpolarized potentials at the tested concentrations (0.37, 1.11, 3.33, 10, 30 μM)
Method: HEK-293 cells stably expressing hKv3.1b was used for the experiments. Cells were cultured in DMEM medium supplemented with 10% Fetal Bovine Serum, 100 ug/mL Geneticidin and 100 u/mL Penicillin/Streptomycin (all from Gibco). Cells were grown to 80-90% confluency at 37° C. and 5% CO2. On the day of the experiment the cells were detached from the tissue culture flasks by Detachin and resuspended in serum free medium containing 25 mM HEPES and transferred to the cell hotel of the QPatch. The cells were used for experiments 0-5 hours after detachment.
Patch-clamp recordings were performed using the automated recording system QPatch-16x (Sophion Bioscience, Denmark). Cells were centrifuged, SFM removed and the cells were resuspended in extracellular buffer containing (in mM): 145 NaCl, 4 KCl, 1 MgCl2, 2 CaCl2, 10 HEPES and 10 glucose (added fresh on the day of experiment); pH 7.4 adjusted with NaOH, 305 mOsm adjusted with sucrose.
Single cell whole-cell recordings were carried out using an intracellular solution containing (in mM): 120 KCl, 32.25/10 KOH/EGTA, 5.374 CaCl2, 1.75 MgCl2, 10 HEPES, 4 Na2ATP (added fresh on the day), pH 7.2 adjusted with KOH, […] adjusted with sucrose. Cell membrane potentials were held at −80 mV and currents were evoked by voltage steps (200 ms duration) from −70 mV to +10 mV (in 10 mV increments).
Leak subtraction protocol was applied at −33% of the sweep amplitude, and serial resistance values were constantly monitored.
Any cell where serial resistance exceeded 25 MOhm, membrane resistance less than 200 MOhm or current size at −10 mV less than 200 pA was eliminated from the subsequent analysis.
Data analysis was performed using Sophion's QPatch assay software in combination with Microsoft Excel™ (Redmond, Wash., USA).
Current voltage relationships were plotted from the peak current at the individual voltage steps normalized to the vehicle addition at 10 mV. The voltage threshold for channel activation was defined as 5% activation of the peak current at 10 mV in presence of vehicle. The activity of the compounds was described as the ability to shift this current voltage relationship to more hyperpolarized potentials and is given as the maximum absolute shift possible at the tested concentrations (0.37, 1.11, 3.33, 10, 30 μM). Concentration response curves were plotted from the threshold shift at the individual concentrations and were fitted excel fit model 205 sigmodal dose-response model (fit=A+((B−A)/1+((C/x)^D)))), where A is the minimum value, B the maximum value, C the EC50 value and D the slope of the curve. The concentration needed to shift the threshold 5 mV was readout from this curve (ECdelta 5 mV).

Cc1ccc(S(=O)(=O)n2ccc(C(=O)NCc3cnn(C)c3)n2)cc1 [Compound 62, 1-(4-methylbenzene-1-sulfonyl)-N-[(1-methyl-1H-pyrazol-4-yl)methyl]-1H-pyrazole-3-carboxamide]
ECdelta5mV: 1.6 µM | Max Delta threshold: 25 mV

Cc1cnc(CNC(=O)c2ccn(S(=O)(=O)c3ccc(F)c(Cl)c3)n2)cn1 [Compound 69, 1-(3-chloro-4-fluoro-phenyl)sulfonyl-N-[(5-methylpyrazin-2-yl)methyl]pyrazole-3-carboxamide]
ECdelta5mV: 4.6 µM | Max Delta threshold: 16 mV

Cc1cc(CNC(=O)c2ccn(S(=O)(=O)c3ccccc3C)n2)on1 [Compound 29, 1-(2-methylbenzene-1-sulfonyl)-N-[(3-methyl-1,2-oxazol-5-yl)methyl]-1H-pyrazole-3-carboxamide]
ECdelta5mV: 3.1 µM | Max Delta threshold: 22 mV

COc1ccc(S(=O)(=O)n2ccc(C(=O)NCc3cnccn3)n2)cc1 [Compound 43, 1-(4-methoxybenzene-1-sulfonyl)-N-[(pyrazin-2-yl)methyl]-1H-pyrazole-3-carboxamide]
ECdelta5mV: 1.6 µM | Max Delta threshold: 25 mV

Cn1ccc(CNC(=O)c2ccn(S(=O)(=O)c3ccc(F)cc3)n2)n1 [Compound 35, 1-(4-fluorobenzene-1-sulfonyl)-N-[(1-methyl-1H-pyrazol-3-yl)methyl]-1H-pyrazole-3-carboxamide]
ECdelta5mV: 4.8 µM | Max Delta threshold: 12 mV

Cc1cc(CNC(=O)c2ccn(S(=O)(=O)c3ccccc3)n2)on1 [Compound 14, 1-(benzenesulfonyl)-N-[(3-methyl-1,2-oxazol-5-yl)methyl]-1H-pyrazole-3-carboxamide]
ECdelta5mV: 4.5 µM | Max Delta threshold: 14 mV

COc1ccc(S(=O)(=O)n2ccc(C(=O)NCc3cnc(C)cn3)n2)cc1F [Compound 74, 1-(3-fluoro-4-methoxy-phenyl)sulfonyl-N-[(5-methylpyrazin-2-yl)methyl]pyrazole-3-carboxamide]
ECdelta5mV: 3.2 µM | Max Delta threshold: 17 mV

Cc1ccc(S(=O)(=O)n2ccc(C(=O)NCc3cnsc3)n2)cc1 [Compound 33, 1-(4-methylbenzene-1-sulfonyl)-N-[(1,2-thiazol-4-yl)methyl]-1H-pyrazole-3-carboxamide]
ECdelta5mV: 2.8 µM | Max Delta threshold: 12 mV

Cc1cnc(CNC(=O)c2ccn(S(=O)(=O)c3ccc(F)cc3C)n2)cn1 [Compound 66, 1-(4-fluoro-2-methyl-phenyl)sulfonyl-N-[(5-methylpyrazin-2-yl)methyl]pyrazole-3-carboxamide]
ECdelta5mV: 2.4 µM | Max Delta threshold: 31 mV

Cc1cccc(S(=O)(=O)n2ccc(C(=O)NCc3cnn(C)c3)n2)c1 [Compound 21, 1-(3-methylbenzene-1-sulfonyl)-N-[(1-methyl-1H-pyrazol-4-yl)methyl]-1H-pyrazole-3-carboxamide]
ECdelta5mV: 3.7 µM | Max Delta threshold: 16 mV

Cc1cnc(CNC(=O)c2ccn(S(=O)(=O)c3ccccc3C)n2)o1 [Compound 17, 1-(2-methylbenzene-1-sulfonyl)-N-[(5-methyl-1,3-oxazol-2-yl)methyl]-1H-pyrazole-3-carboxamide]
ECdelta5mV: 3.9 µM | Max Delta threshold: 15 mV

Cc1ccc(S(=O)(=O)n2ccc(C(=O)NCc3nc(C)no3)n2)cc1 [Compound 48, 1-(4-methylbenzene-1-sulfonyl)-N-[(3-methyl-1,2,4-oxadiazol-5-yl)methyl]-1H-pyrazole-3-carboxamide]
ECdelta5mV: 1.5 µM | Max Delta threshold: 24 mV

Cc1cnc(CNC(=O)c2ccn(S(=O)(=O)c3ccc(OC(F)F)cc3)n2)cn1 [Compound 65, 1-[4-(difluoromethoxy)phenyl]sulfonyl-N-[(5-methylpyrazin-2-yl)methyl]pyrazole-3-carboxamide]
ECdelta5mV: 3.6 µM | Max Delta threshold: 25 mV

COc1ccc(S(=O)(=O)n2ccc(C(=O)NCc3cnoc3)n2)cc1 [Compound 9, 1-(4-methoxybenzene-1-sulfonyl)-N-[(1,2-oxazol-4-yl)methyl]-1H-pyrazole-3-carboxamide]
ECdelta5mV: 3.9 µM | Max Delta threshold: 13 mV

Cc1cccc(S(=O)(=O)n2ccc(C(=O)NCc3ncc(C)o3)n2)c1 [Compound 18, 1-(3-methylbenzene-1-sulfonyl)-N-[(5-methyl-1,3-oxazol-2-yl)methyl]-1H-pyrazole-3-carboxamide]
ECdelta5mV: 7.3 µM | Max Delta threshold: 13 mV

Cc1ccc(S(=O)(=O)n2cc(C)c(C(=O)NCc3cnc(C)cn3)n2)cc1 [Compound 32, 4-methyl-1-(4-methylbenzene-1-sulfonyl)-N-[(5-methylpyrazin-2-yl)methyl]-1H-pyrazole-3-carboxamide]
ECdelta5mV: 4.3 µM | Max Delta threshold: 12 mV

COc1ccc(S(=O)(=O)n2ccc(C(=O)NCc3cnc(C)cn3)n2)cc1C [Compound 1, 1-(4-methoxy-3-methylbenzene-1-sulfonyl)-N-[(5-methylpyrazin-2-yl)methyl]-1H-pyrazole-3-carboxamide]
ECdelta5mV: 1.8 µM | Max Delta threshold: 23 mV

Cc1ccccc1S(=O)(=O)n1ccc(C(=O)NCc2cnn(C)c2)n1 [Compound 28, 1-(2-methylbenzene-1-sulfonyl)-N-[(1-methyl-1H-pyrazol-4-yl)methyl]-1H-pyrazole-3-carboxamide]
ECdelta5mV: 2.4 µM | Max Delta threshold: 22 mV

Cc1cnc(CNC(=O)c2ccn(S(=O)(=O)c3ccc(C4CC4)cc3)n2)cn1 [Compound 79, 1-(4-cyclopropylphenyl)sulfonyl-N-[(5-methylpyrazin-2-yl)methyl]pyrazole-3-carboxamide]
ECdelta5mV: 0.99 µM | Max Delta threshold: 32 mV

Cc1ccc(S(=O)(=O)n2ccc(C(=O)NCc3nc(C)cs3)n2)cc1 [Compound 61, 1-(4-methylbenzene-1-sulfonyl)-N-[(4-methyl-1,3-thiazol-2-yl)methyl]-1H-pyrazole-3-carboxamide]
ECdelta5mV: 2 µM | Max Delta threshold: 19 mV

Cc1cccc(S(=O)(=O)n2ccc(C(=O)NCc3cc(C)no3)n2)c1 [Compound 19, 1-(3-methylbenzene-1-sulfonyl)-N-[(3-methyl-1,2-oxazol-5-yl)methyl]-1H-pyrazole-3-carboxamide]
ECdelta5mV: 2.4 µM | Max Delta threshold: 17 mV

Cc1ccc(S(=O)(=O)n2ccc(C(=O)NCc3cocn3)n2)cc1 [Compound 49, 1-(4-methylbenzene-1-sulfonyl)-N-[(1,3-oxazol-4-yl)methyl]-1H-pyrazole-3-carboxamide]
ECdelta5mV: 2 µM | Max Delta threshold: 19 mV

Cc1ccc(S(=O)(=O)n2ccc(C(=O)NCc3cnoc3)n2)cc1 [Compound 51, 1-(4-methylbenzene-1-sulfonyl)-N-[(1,2-oxazol-4-yl)methyl]-1H-pyrazole-3-carboxamide]
ECdelta5mV: 3.3 µM | Max Delta threshold: 16 mV

Cc1cnc(CNC(=O)c2ccn(S(=O)(=O)c3cccc(Cl)c3)n2)cn1 [Compound 75, 1-(3-chlorophenyl)sulfonyl-N-[(5-methylpyrazin-2-yl)methyl]pyrazole-3-carboxamide]
ECdelta5mV: 3.2 µM | Max Delta threshold: 17 mV

Cc1cc(CNC(=O)c2ccn(S(=O)(=O)c3ccc(F)cc3)n2)on1 [Compound 31, 1-(4-fluorobenzene-1-sulfonyl)-N-[(3-methyl-1,2-oxazol-5-yl)methyl]-1H-pyrazole-3-carboxamide]
ECdelta5mV: 4.1 µM | Max Delta threshold: 13 mV
